Literature values in patent US9493446B2, “Orexin receptor antagonists which are [ortho bi-(hetero-)aryl]-[2-(meta bi-(hetero-)aryl)-pyrrolidin-1-yl]-methanone derivatives” (Actelion Pharmaceuticals Ltd, priority 2012, dated 2016).

Biological target: orexin-1 (Homo sapiens (Human), UniProt O43613)
Details: cited from earlier work

Sequence of orexin-1 (O43613 whole entry): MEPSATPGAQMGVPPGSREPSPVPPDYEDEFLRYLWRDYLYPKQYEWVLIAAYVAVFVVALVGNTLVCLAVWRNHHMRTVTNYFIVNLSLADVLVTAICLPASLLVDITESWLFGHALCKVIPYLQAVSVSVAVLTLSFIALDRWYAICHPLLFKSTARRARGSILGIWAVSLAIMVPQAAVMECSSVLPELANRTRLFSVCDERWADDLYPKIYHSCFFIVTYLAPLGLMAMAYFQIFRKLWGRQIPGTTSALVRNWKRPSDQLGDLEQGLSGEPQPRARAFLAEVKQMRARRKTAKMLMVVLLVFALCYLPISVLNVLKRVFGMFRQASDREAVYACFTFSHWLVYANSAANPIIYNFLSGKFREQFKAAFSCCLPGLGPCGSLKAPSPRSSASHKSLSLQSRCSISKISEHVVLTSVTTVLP

## Cc1nc(C(=O)N2CCC[C@H]2Cc2nnc(-c3ccccc3)o2)c(-c2ccccc2F)s1 [1-(5-(2-fluoro-phenyl)-2-methyl-thiazol-4-yl)-1-[(S)-2-(5-phenyl-[1,3,4]oxadiazol-2-ylmethyl)-pyrrolidin-1-yl)-methanone]
  orexin receptor selectivity: highly orexin-1 selective
